# Test results: ChEMBL document CHEMBL1201862, “PubChem BioAssay data set” (2004)
# Calls of active or inactive are those of the source.
# How the values were obtained:
# [1] = molecular target: T1, DNA repair and recombination protein RAD54-like (Homo sapiens, UniProt Q92698); assay: RAD54 Holliday junction migration blockers – biochemical, fluorescence, cherry-picked samples, dose series, confirmation (AID 651657); format: functional
# T1 sequence (Q92698 whole entry): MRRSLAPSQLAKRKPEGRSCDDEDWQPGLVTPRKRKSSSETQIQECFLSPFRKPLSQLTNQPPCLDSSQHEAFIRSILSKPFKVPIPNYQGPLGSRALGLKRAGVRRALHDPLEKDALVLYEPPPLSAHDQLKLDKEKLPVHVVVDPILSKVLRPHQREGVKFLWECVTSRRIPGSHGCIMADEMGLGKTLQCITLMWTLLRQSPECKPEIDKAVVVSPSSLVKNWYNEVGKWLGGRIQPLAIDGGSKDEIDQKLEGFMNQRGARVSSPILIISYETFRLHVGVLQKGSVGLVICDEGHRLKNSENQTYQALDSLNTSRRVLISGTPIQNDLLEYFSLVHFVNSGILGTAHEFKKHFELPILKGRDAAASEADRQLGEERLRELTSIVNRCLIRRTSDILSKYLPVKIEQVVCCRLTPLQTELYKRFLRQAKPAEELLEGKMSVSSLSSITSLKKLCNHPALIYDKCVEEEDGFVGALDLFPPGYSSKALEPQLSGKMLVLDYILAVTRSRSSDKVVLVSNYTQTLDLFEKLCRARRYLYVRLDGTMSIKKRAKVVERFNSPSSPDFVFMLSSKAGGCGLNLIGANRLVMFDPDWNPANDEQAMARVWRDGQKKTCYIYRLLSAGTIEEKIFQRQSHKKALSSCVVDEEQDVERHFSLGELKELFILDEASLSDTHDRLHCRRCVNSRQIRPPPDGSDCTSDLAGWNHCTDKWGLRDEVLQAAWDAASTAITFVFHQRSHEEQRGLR
# [2] = molecular target: T2, Short transient receptor potential channel 4 (Mus musculus, UniProt Q9QUQ5); assay: calcium entry via TRPC4 opening agents – cell-based, HEK293 TRPC4/mu-opioid, Fluo-4 calcium, dose response (AID 434937); format: functional
# T2 sequence (Q9QUQ5 whole entry): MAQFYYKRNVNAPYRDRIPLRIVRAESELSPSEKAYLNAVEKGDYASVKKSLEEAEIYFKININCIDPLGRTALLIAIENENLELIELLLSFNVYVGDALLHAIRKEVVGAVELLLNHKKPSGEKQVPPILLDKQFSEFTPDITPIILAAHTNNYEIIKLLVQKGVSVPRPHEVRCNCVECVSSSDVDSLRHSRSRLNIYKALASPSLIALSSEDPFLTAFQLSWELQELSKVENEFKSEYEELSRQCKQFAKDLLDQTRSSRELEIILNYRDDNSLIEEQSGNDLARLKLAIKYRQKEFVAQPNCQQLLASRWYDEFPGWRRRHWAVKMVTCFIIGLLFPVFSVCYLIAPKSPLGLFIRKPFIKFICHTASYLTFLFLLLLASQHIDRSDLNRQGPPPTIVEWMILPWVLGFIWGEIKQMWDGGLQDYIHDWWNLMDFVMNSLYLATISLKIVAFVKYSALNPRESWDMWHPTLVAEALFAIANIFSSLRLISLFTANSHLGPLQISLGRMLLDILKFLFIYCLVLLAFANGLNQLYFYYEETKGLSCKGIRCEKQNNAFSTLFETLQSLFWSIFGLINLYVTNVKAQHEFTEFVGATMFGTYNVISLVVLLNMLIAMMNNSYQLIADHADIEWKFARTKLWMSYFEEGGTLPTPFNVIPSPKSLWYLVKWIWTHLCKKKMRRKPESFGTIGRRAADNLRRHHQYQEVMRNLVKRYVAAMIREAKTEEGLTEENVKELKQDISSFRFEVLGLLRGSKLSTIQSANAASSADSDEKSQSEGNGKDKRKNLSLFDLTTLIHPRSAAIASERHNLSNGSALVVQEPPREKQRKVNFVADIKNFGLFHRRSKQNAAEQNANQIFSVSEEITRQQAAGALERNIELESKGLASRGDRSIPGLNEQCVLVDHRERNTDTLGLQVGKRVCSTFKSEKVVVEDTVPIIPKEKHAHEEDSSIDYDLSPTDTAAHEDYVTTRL
# Cytochrome P450 2C19 = Cytochrome P450 2C19 (Homo sapiens, UniProt P33261); assay: Cytochrome panel assay with activity outcomes. Panel member name: p450-cyp2c19 Compounds with AC50 equal or less than 10 uM are considered active; format: functional; conditions: read-out: AC50
# Sequence of Cytochrome P450 2C19 (P33261 whole entry): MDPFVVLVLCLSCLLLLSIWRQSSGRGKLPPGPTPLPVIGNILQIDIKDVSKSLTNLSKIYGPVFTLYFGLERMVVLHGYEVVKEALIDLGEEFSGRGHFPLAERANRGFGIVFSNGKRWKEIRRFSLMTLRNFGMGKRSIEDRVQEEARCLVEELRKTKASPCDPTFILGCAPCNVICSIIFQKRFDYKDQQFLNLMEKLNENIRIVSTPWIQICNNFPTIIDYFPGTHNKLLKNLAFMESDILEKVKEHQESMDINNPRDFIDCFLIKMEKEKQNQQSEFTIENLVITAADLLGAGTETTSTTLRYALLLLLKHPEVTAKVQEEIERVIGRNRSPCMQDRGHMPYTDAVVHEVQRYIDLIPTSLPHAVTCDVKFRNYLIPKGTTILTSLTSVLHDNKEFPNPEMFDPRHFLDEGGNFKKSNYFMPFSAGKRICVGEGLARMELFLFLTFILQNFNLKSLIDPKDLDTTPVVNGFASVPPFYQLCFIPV
# [3] = molecular target: T3, Ubiquitin-conjugating enzyme E2 N (Homo sapiens, UniProt P61088); format: functional;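 note: Dose-response confirmation in a TR-FRET assay detecting UBC13-driven polyubiquitin chain formation, inhibition measured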
# T3 sequence (P61088 whole entry): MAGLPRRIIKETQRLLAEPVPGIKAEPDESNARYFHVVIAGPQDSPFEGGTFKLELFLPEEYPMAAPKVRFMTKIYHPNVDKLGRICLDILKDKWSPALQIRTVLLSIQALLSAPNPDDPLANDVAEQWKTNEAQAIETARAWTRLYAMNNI
# Escherichia coli = assay: microbe, parasite or virus in culture
# [4] = molecular target: Heat shock protein HSP 90-alpha (Homo sapiens, UniProt P07900); format: functional, organism-based
# [5] = Fluorescence-based cell-based high throughput dose response assay for inhibitors of the interaction of nucleotide-binding oligomerization domain containing 2 (NOD2) and the receptor-interacting serine-threonine kinase 2 (RIPK2).; format: functional, Homo sapiens
structure (smiles),measurement,setting,value
CCN(CC)CCNC(=O)c1cc2c(=O)n(C)c3ccccc3c2n1C,AC50,[1],18.3 µM (active)
O=C(O)C1C2C=CC(C2)C1C(=O)N1CCN(C/C=C/c2ccccc2)CC1 (stereo unspecified),EC50,[2],5.96 µM (active)
same,AC50,Cytochrome P450 2C19,14.1 µM (inconclusive)
COc1ccc(C[C@@H]2CN3C(=NC[C@@H]3Cc3ccc(O)cc3)N2C[C@H](C)NC(=O)CCC2CCCCC2)cc1,IC50,[3],> 20 µM (inactive)
O=C1NC(=O)N(CCc2ccccc2)C(=O)/C1=C/NCc1ccc2c(c1)OCO2,AC50,Escherichia coli,43.4 µM (active)
CCC(C(=O)NC1CCCC1)N(C(=O)c1snc(C(N)=O)c1N)c1ccc(OC)cc1 (stereo unspecified),IC50,[3],> 20 µM (inactive)
CCOc1ncccc1C(=O)N(CC)CC(=O)Nc1ccc(NC(C)=O)cc1,AC50,Escherichia coli,96.8 µM (active)
OC(Cn1cncn1)(c1ccccc1)c1ccccc1,AC50,[4],1.43 µM (active)
CC1CCCCN1S(=O)(=O)c1ccc(NC(=O)c2ccco2)cc1 (stereo unspecified),AC50,Escherichia coli,32.1 µM (active)
Cc1cc(C)c2nc(C)cc(Nc3ccc(C(=O)NCCO)cc3)c2c1,AC50,[1],32.6 µM (active)
CC(=O)OC1CC2OC3C=C(C)CCC3(C)C1(C)C21CO1 (stereo unspecified),IC50,[5],49.8 µM (inactive)
